# Test results taken from article PMC10369073, “Production, identification, in silico analysis, and cytoprotection on H2O2-induced HUVECs of novel angiotensin-I-converting enzyme inhibitory peptides from Skipjack tuna roes” (Frontiers in Nutrition, 2023).
# T1: angiotensin-I-converting enzyme (ACE) (UniProt P12822)
# T1 sequence: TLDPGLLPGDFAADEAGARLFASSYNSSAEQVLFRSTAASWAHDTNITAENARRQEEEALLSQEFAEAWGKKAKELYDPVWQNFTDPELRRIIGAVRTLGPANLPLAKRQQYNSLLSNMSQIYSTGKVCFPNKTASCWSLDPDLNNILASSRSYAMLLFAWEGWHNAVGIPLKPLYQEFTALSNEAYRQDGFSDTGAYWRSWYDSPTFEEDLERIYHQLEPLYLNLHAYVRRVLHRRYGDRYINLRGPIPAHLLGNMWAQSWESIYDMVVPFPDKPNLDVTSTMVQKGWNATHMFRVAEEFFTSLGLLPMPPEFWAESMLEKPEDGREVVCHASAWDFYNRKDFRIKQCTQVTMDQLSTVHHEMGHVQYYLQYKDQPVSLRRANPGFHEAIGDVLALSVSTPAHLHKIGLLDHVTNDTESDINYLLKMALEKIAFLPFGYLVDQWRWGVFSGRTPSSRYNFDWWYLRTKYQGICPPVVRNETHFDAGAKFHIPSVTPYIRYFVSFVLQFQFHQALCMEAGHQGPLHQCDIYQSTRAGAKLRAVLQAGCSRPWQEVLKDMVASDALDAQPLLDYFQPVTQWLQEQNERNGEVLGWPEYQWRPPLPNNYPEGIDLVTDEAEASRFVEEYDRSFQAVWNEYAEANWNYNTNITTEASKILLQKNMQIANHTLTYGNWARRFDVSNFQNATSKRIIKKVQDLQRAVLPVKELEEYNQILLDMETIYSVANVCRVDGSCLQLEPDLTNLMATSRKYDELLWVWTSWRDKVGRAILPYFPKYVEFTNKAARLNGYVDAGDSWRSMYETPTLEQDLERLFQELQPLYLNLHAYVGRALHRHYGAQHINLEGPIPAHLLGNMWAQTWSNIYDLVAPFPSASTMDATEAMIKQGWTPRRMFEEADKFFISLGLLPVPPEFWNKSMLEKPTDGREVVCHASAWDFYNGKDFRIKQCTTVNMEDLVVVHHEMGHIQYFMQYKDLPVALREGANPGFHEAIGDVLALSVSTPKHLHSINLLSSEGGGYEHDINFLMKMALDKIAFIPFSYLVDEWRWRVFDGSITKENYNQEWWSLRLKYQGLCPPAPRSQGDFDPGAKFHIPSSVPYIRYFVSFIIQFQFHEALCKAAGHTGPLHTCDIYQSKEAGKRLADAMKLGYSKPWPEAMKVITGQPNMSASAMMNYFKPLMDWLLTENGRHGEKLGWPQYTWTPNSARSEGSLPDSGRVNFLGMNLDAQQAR
# T2: ACE (Oryctolagus cuniculus, UniProt P12822)
# T2 sequence (P12822 34-1310): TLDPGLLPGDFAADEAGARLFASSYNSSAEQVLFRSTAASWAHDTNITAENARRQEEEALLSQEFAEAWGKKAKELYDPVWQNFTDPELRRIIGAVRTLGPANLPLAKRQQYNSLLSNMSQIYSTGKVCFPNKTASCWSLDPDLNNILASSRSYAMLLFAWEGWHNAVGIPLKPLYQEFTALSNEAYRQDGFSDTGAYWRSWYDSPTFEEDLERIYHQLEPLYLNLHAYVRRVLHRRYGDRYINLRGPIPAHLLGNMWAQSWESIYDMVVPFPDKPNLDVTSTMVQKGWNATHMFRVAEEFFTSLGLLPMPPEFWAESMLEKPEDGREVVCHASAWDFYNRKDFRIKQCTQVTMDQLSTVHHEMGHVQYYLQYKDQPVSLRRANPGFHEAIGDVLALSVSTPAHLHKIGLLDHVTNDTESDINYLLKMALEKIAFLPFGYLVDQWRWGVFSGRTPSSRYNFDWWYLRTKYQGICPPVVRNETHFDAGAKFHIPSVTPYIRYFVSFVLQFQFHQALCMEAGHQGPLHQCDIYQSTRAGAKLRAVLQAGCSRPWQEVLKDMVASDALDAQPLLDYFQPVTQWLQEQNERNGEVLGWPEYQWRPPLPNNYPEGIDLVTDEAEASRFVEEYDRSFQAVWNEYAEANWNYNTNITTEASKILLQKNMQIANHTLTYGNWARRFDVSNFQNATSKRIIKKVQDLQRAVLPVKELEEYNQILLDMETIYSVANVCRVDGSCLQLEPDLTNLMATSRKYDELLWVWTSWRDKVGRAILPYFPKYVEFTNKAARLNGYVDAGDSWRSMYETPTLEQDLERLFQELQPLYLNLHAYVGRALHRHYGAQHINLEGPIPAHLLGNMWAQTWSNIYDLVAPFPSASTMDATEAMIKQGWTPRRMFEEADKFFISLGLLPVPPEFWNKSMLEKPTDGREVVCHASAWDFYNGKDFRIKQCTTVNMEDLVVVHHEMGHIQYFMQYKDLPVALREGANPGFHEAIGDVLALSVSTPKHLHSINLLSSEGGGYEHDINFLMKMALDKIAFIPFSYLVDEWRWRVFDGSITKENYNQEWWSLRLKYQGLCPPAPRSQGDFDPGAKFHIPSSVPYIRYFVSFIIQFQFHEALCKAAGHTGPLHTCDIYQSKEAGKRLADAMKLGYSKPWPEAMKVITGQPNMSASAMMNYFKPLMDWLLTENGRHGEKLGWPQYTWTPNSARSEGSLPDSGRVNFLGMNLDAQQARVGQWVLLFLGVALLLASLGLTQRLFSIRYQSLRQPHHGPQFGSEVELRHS
# Target: T1, angiotensin-I-converting enzyme (ACE)
# Assay: not given
# Conditions: not given
row,"ACEi activity (IC50): inhibition of ACE enzyme activity, substrate FAPGG, 37°C, product measured by HPLC at 228 nm",Molecule
1,670 µg/mL,WSPGF [TRP12 (WSPGF; Trp-Ser-Pro-Gly-Phe)]
2,790 µg/mL,IKSW [TRP6 (IKSW; Ile-Lys-Ser-Trp)]
3,930 µg/mL,WGESF [TRP3 (WGESF; Trp-Gly-Glu-Ser-Phe)]
4,490 µg/mL,YSHM [TRP9 (YSHM; Tyr-Ser-His-Met)]

# Target: T1, angiotensin-I-converting enzyme (ACE)
# Assay: not given
# Conditions: not given
# Remark: another data set of the same source
row,ACEi rate (percent inhibition of ACE activity) of the RP-HPLC isolated peptide at 1.5 mg/mL,Molecule
1,78.2%,WSPGF [TRP12 (WSPGF; Trp-Ser-Pro-Gly-Phe)]
2,75.4%,IKSW [TRP6 (IKSW; Ile-Lys-Ser-Trp)]
3,69.5%,WGESF [TRP3 (WGESF; Trp-Gly-Glu-Ser-Phe)]
4,83.5%,YSHM [TRP9 (YSHM; Tyr-Ser-His-Met)]

# Test system: HUVECs
# Assay: NO production in HUVECs (assay kit)
# Type: cell-based, human
# Conditions: Cap treatment; control 33.68 ± 0.96 μM
# Description: (§1) HUVECs were cultured in DMEM supplemented with 100 µg/mL streptomycin, 10% FBS (v/v), and 100 U/mL penicillin at 37°C in a humidified 5% CO2 atmosphere for 24 h.
# (§2) After treating with ACEi peptides (TRP3, TRP6, TRP9, or TRP12, respectively) for 24 h, NO and ET-1 contents were separately determined by employing human NO and ET-1 assay kit as per manufactures’ protocol ([18]).
row,Molecule,NO level in HUVECs
1,"C[C@H](CS)C(=O)N1CCC[C@H]1C(=O)O [Cap, captopril, reference compound]",53.71 ± 2.313 µM

# Same assay, conditions: NE treatment (0.5 μM); control 33.68 ± 0.96 μM
row,Molecule,NO level in HUVECs
1,"NC[C@H](O)c1ccc(O)c(O)c1 [NE, norepinephrine, reference compound]",18.59 ± 0.82 µM

# Test system: HUVECs
# Assay: ET-1 secretion in HUVECs (assay kit)
# Type: cell-based, human
# Conditions: Cap 1.0 μM; control 55.37 ± 2.53 pg./mL
# Description: as §1, §2
row,Molecule,ET-1 content in HUVECs
1,"C[C@H](CS)C(=O)N1CCC[C@H]1C(=O)O [Cap, captopril, reference compound]",27.32 ± 1.28 pg/mL

# Same assay, conditions: NE 0.5 μM; control 55.37 ± 2.53 pg./mL
row,Molecule,ET-1 content in HUVECs
1,"NC[C@H](O)c1ccc(O)c(O)c1 [NE, norepinephrine, reference compound]",73.57 ± 3.09 pg/mL

# Target: T2, ACE
# Assay: not given
# Conditions: cited from earlier work
# Text: Moreover, the C- and N-terminal amino acids are believed to play a crucial function in the activity of ACEi peptides ([21]). Yu et al. ([56]) reported that C-terminus (such as Trp, Tyr, Pro, or Phe) and N-terminus (such as Pro, Phe, Trp, or Met) hydrophobic amino acid residues have positive effects on the ACEi ...
row,Molecule,ACEi IC50
1,NFRPQ [literature ACEi peptide],4280 µg/mL
2,LAPPSTRH [literature ACEi peptide],1310 µg/mL
3,MVGSAPGVL [literature ACEi peptide],3090 µg/mL
4,FRKE [literature ACEi peptide],6970 µg/mL
5,YLRLHF [literature ACEi peptide],1260 µg/mL

# Same assay, conditions: read-out: ACEi IC50; cited from earlier work
row,Molecule,IC50
1,KFYG [literature ACEi peptide],90.5 µM
2,ACKEP [literature ACEi peptide],126 µM

# Target: T2, ACE
# Assay: not given
# Conditions: cited from earlier work
# Remark: another data set of the same source
# Text: Peptide size and amino acid sequence are two key factors affecting the ACEi ability of BPs ([17], [21]). Peptide size decides the affinity between BPs and ACE because big polypeptides cannot be accommodated in and access the narrow channel of ACE ([21]). For example, VPP and IPP can easily access and bind the Zn^2+ of ACE channel, but ALPMHIR has low binding scores with ACE because it uncomfortably accesses the narrow channel ([19]). In the experiment, TRP3, TRP6, TRP9, and TRP10 are tetrapeptides or pentapeptides, and small size increases their access to the active channel of ACE, and this ha ...
row,Molecule,affinity with ACE (docking)
1,SPYGF [literature ACEi peptide],-9.7 kcal/mol
2,LSFR [literature ACEi peptide],-8.5 kcal/mol
3,IYSP [literature ACEi peptide],-8.3 kcal/mol
4,YVVF [literature ACEi peptide],-9.8 kcal/mol
5,YEGDP [literature ACEi peptide],-8.8 kcal/mol
6,LVLL [literature ACEi peptide],-8.6 kcal/mol
7,SHGEY [literature ACEi peptide],-8.7 kcal/mol
8,SWISS [literature ACEi peptide],-8.6 kcal/mol
